Measurements as given in US11718605B2, “Heterocyclic compounds as immunomodulators” (Incyte Corporation, priority 2016, dated 2023).
pIC50: −log10 of the molar value.

biological target: PD-1/PD-L1 protein/protein interaction (Homo sapiens (Human), UniProt Q9NZQ7); assay: PD-1/PD-L1 Homogeneous Time-Resolved Fluorescence (HTRF) Binding Assay; conditions: recombinant human PD-L1 (19-238) His-tag 10 nM, human PD-1 (25-167) Fc tag 3 nM; 25° C., PBS pH 7.4
Description: Example A. PD-1/PD-L1 Homogeneous Time-Resolved Fluorescence (HTRF) Binding Assay
The assays were conducted in a standard black 384-well polystyrene plate with a final volume of 20 μL. Inhibitors were first serially diluted in DMSO and then added to the plate wells before the addition of other reaction components. The final concentration of DMSO in the assay was 1%. The assays were carried out at 25° C. in the PBS buffer (pH 7.4) with 0.05% Tween-20 and 0.1% BSA. Recombinant human PD-L1 protein (19-238) with a His-tag at the C-terminus was purchased from AcroBiosystems (PD1-H5229). Recombinant human PD-1 protein (25-167) with Fc tag at the C-terminus was also purchased from AcroBiosystems (PD1-H5257). PD-L1 and PD-1 proteins were diluted in the assay buffer and 10 μL was added to the plate well. Plates were centrifuged and proteins were preincubated with inhibitors for 40 minutes. The incubation was followed by the addition of 10 μL of HTRF detection buffer supplemented with Europium cryptate-labeled anti-human IgG (PerkinElmer-AD0212) specific for Fc and anti-His antibody conjugated to SureLight®-Allophycocyanin (APC, PerkinElmer-AD0059H). After centrifugation, the plate was incubated at 25° C. for 60 min. before reading on a PHERAstar FS plate reader (665 nm/620 nm ratio). Final concentrations in the assay were—3 nM PD1, 10 nM PD-L1, 1 nM europium anti-human IgG and 20 nM anti-His-Allophycocyanin. IC50 determination was performed by fitting the curve of percent control activity versus the log of the inhibitor concentration using the GraphPad Prism 5.0 software.

Chain of PD-1/PD-L1 protein/protein interaction (Q9NZQ7 19-238): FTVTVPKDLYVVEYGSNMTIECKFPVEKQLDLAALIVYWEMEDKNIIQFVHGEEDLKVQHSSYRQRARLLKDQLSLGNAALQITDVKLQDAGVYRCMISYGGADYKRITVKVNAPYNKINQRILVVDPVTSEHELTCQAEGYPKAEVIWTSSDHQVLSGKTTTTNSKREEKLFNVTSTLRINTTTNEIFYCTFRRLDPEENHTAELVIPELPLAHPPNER

| pIC50 | Structure (SMILES) |
| --- | --- |
| ≥ 7.00 | Cc1c(NC(=O)c2cc(CN3CCCC[C@H]3C(=O)O)cn(C)c2=O)cccc1-c1ccccc1 [Example 1, (2S)-1-[(1-methyl-5-{[(2-methylbiphenyl-3-yl)amino]carbonyl}-6-oxo-1,6-dihydropyridin-3-yl)methyl]piperidine-2-carboxylic acid] |
| 6.30 to 7.00 | Cn1cc(CNCCO)cc(C(=O)Nc2cccc(C3CCCCC3)c2C#N)c1=O [Example 3, N-(2-cyano-3-cyclohexylphenyl)-5-{[(2-hydroxyethyl)amino]methyl}-1-methyl-2-oxo-1,2-dihydropyridine-3-carboxamide] |
| ≥ 7.00 | COc1cccc(-c2cccc(NC(=O)c3cc(CNCCO)cn(C)c3=O)c2C)c1F [Example 12, N-(2′-fluoro-3′-methoxy-2-methylbiphenyl-3-yl)-5-((2-hydroxyethylamino)methyl)-1-methyl-2-oxo-1,2-dihydropyridine-3-carboxamide] |
| 6.30 to 7.00 | Cn1cc(CNCCO)cc(C(=O)Nc2cccc(-c3ccccc3)c2C#N)c1=O [Example 7, N-(2-cyanobiphenyl-3-yl)-5-{[(2-hydroxyethyl)amino]methyl}-1-methyl-2-oxo-1,2-dihydropyridine-3-carboxamide] |
| 5.00 to 6.30 | CCn1cc(CN2CCCC[C@H]2C(=O)O)cc(C(=O)Nc2cccc(-c3ccccc3)c2C)c1=O [Example 9, (2S)-1-[(1-ethyl-5-{[(2-methylbiphenyl-3-yl)amino]carbonyl}-6-oxo-1,6-dihydropyridin-3-yl)methyl]piperidine-2-carboxylic acid] |
| ≥ 7.00 | Cn1cc(CNCCO)cc(C(=O)Nc2cccc(-c3cccc4c3cnn4C)c2C#N)c1=O [Example 8, N-(2-cyano-3-(1-methyl-1H-indazol-4-yl)phenyl)-5-((2-hydroxyethylamino)methyl)-1-methyl-2-oxo-1,2-dihydropyridine-3-carboxamide] |
| ≥ 7.00 | COc1cccc(-c2cccc(NC(=O)c3cc(CNCCO)cn(C)c3=O)c2C#N)c1 [Example 5, N-(2-cyano-3′-methoxybiphenyl-3-yl)-5-{[(2-hydroxyethyl)amino]methyl}-1-methyl-2-oxo-1,2-dihydropyridine-3-carboxamide] |
| ≥ 7.00 | Cn1cc(CNCCO)cc(C(=O)Nc2cccc(-c3ccc4c(c3)OCCO4)c2C#N)c1=O [Example 4, N-[2-cyano-3-(2,3-dihydro-1,4-benzodioxin-6-yl)phenyl]-5-{[(2-hydroxyethyl)amino]methyl}-1-methyl-2-oxo-1,2-dihydropyridine-3-carboxamide] |
| ≥ 7.00 | Cn1cc(CNCCO)cc(C(=O)Nc2cccc(-c3ccccc3F)c2C#N)c1=O [Example 6, N-(2-cyano-2′-fluorobiphenyl-3-yl)-5-{[(2-hydroxyethyl)amino]methyl}-1-methyl-2-oxo-1,2-dihydropyridine-3-carboxamide] |
| 6.30 to 7.00 | CCn1cc(CNCCO)cc(C(=O)Nc2cccc(-c3ccccc3)c2C)c1=O [Example 10, 1-ethyl-5-{[(2-hydroxyethyl)amino]methyl}-N-(2-methylbiphenyl-3-yl)-2-oxo-1,2-dihydropyridine-3-carboxamide] |
| ≥ 7.00 | Cc1c(NC(=O)c2cc(CNCCO)cn(C)c2=O)cccc1-c1ccc2c(c1)OCCO2 [Example 13, N-[3-(2,3-dihydro-1,4-benzodioxin-6-yl)-2-methylphenyl]-5-{[(2-hydroxyethyl)amino]methyl}-1-methyl-2-oxo-1,2-dihydropyridine-3-carboxamide] |
| ≥ 7.00 | Cc1c(NC(=O)c2cc(CNCCO)cn(C)c2=O)cccc1-c1ccccc1 [Example 2, 5-{[(2-hydroxyethyl)amino]methyl}-1-methyl-N-(2-methylbiphenyl-3-yl)-2-oxo-1,2-dihydropyridine-3-carboxamide] |
| ≥ 7.00 | Cc1c(NC(=O)c2cc(CNCCO)cn(C)c2=O)cccc1-c1cccc2c1cnn2C [Example 11, 5-{[(2-hydroxyethyl)amino]methyl}-1-methyl-N-[2-methyl-3-(1-methyl-1H-indazol-4-yl)phenyl]-2-oxo-1,2-dihydropyridine-3-carboxamide] |
